# Assay results published in PubChem BioAssay (NCI).
# “And” between values parts separate entries of the source, which are not always exact repeats. Identical values can stand only once.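 Each compound was tested at five concentrations against cells in 96-well plates for 48 hours. GI50 marks 50% less growth. TGI marks complete inhibition of growth.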
# Experiments:
# Experiment in all cases: growth of human tumour cells (NCI), 48 h
# HT29 colon = tested on: HT29 colon
# OVCAR-5 ovarian = tested on: OVCAR-5 ovarian
# U251 CNS = tested on: U251 CNS
# CCRF-CEM leukemia = tested on: CCRF-CEM leukemia
# SK-MEL-5 melanoma = tested on: SK-MEL-5 melanoma
# TK-10 renal = tested on: TK-10 renal
# T-47D breast = tested on: T-47D breast
# HCC-2998 colon = tested on: HCC-2998 colon
# HCT-116 colon = tested on: HCT-116 colon
# MALME-3M melanoma = tested on: MALME-3M melanoma
SMILES,GI50 (HT29 colon),TGI (HT29 colon) [µM],GI50 (OVCAR-5 ovarian),TGI (OVCAR-5 ovarian) [µM],GI50 (U251 CNS),TGI (U251 CNS),GI50 (CCRF-CEM leukemia),TGI (CCRF-CEM leukemia) [µM],GI50 (SK-MEL-5 melanoma),TGI (SK-MEL-5 melanoma),GI50 (TK-10 renal),TGI (TK-10 renal) [µM],TGI (T-47D breast) [µM],GI50 (HCC-2998 colon),TGI (HCC-2998 colon) [µM],GI50 (HCT-116 colon),TGI (HCT-116 colon),GI50 (MALME-3M melanoma),TGI (MALME-3M melanoma),GI50 (T-47D breast) [µM]
Nc1c(C(=O)Nc2cccc(F)c2)sc2nc3c(cc12)C(=O)CCC3,0.307 µM,> 100,2.24 µM,> 100,0.488 µM,> 69 µM,0.341 µM,> 100,0.391 µM,> 100 µM,> 100 µM,> 100,> 100,1.01 µM,> 100,447 nM,> 100 µM,0.377 µM,> 100 µM,–
CC(C)O/N=C/c1cc(NC(=S)OC(C)C)ccc1Cl,–,66.3,–,> 86.1,–,> 70.2 µM,–,34.6,–,> 73.4 µM,–,> 100,> 100,–,> 75.3,–,> 74.3 µM,–,> 100 µM,–
C[C@@]12CCC[C@@](C)(C(=O)O)C1CC[C@]13C[C@@](O)(CO)[C@](O)(CCC12)C3 (stereo partly drawn),> 100 µM,> 100,> 100 µM,> 100,> 100 µM,> 100 µM,> 100 µM,> 100,> 100 µM,> 100 µM,> 100 µM,> 100,> 100,> 100 µM,> 100,> 100000 nM,> 100 µM,> 100 µM,> 100 µM,> 100
CC1CCCC(C(O)CC2CC(=O)NC(=O)C2)C1O (stereo not drawn),–,> 100,–,> 100,–,> 100 µM,–,> 100,–,> 100 µM,–,> 100,> 100,–,> 100,–,> 100 µM,–,> 100 µM,–
Cc1nnc(-c2cccc(-c3ccc(C(=O)NCC4CC4)cc3)c2)o1,> 25 µM,> 25,> 25 µM,> 25,> 25 µM,> 25 µM,> 25 µM,> 25,> 25 µM,> 25 µM,> 25 µM,> 25,> 25,> 25 µM,> 25,> 25000 nM,> 25 µM,> 25 µM,> 25 µM,> 16.9
COc1cc(C(=O)N2CCN(c3ncnc4ccccc34)CC2)c(N)cc1OCc1ccccc1,12.7 µM,27.4,15.3 µM,31.5,11.3 µM,23.3 µM,23.8 µM,58.1,11.1 µM,23 µM,20 µM,51.1,40.9,16.6 µM,30.3,10700 nM,22.6 µM,13.7 µM,30.4 µM,7.08
Oc1ccc(-c2nc3ccccc3s2)cc1CN(Cc1ccccn1)Cc1ccccn1,6.74 µM,19.9,2.92 µM,29.8,0.76 µM,17.6 µM,1.09 µM,> 100,0.556 µM,2.27 µM,0.486 µM,34.6,89.9,3.23 µM,17,590 nM,14 µM,1.8 µM,7.77 µM,3.79
O=C(O)C1(C(=O)O)CCC1.[NH2-].[NH2-].[Pt+2],210 µM and > 250 µM,> 250,233 µM and > 250 µM,> 250,67.2 µM and 162 µM,183 µM and > 250 µM,73.5 µM and 22.7 µM,> 250,109 µM and > 194 µM,218 µM and > 250 µM,220 µM and 131 µM,> 250,> 250,209 µM and > 250 µM,> 250,176000 nM and 196000 nM,232 µM and > 250 µM,72.2 µM and 107 µM,180 µM and 192 µM,> 250
COc1cc(-c2cc(O)c(-c3ccc4ccccc4n3)c(=O)[nH]2)cc(OC)c1OC,–,> 73.1,–,> 94.2,–,> 48.2 µM,–,> 30.6,–,62.6 µM,–,> 100,> 100,–,> 100,–,62.2 µM,–,> 54.8 µM,–
O=C(Cc1ccc(F)c(F)c1)Nc1cc(C2(C(F)(F)F)CC2)nn1Cc1ccccc1,3.74 µM,> 15,4 µM,> 15,4.61 µM,> 15 µM,4.79 µM,> 15,2.77 µM,5.4 µM,4.5 µM,> 15,13,4.77 µM,> 15,4280 nM,> 15 µM,2.49 µM,7.85 µM,2.96
S=C(Nc1ccc(-c2nc3ccccc3[nH]2)cc1)Nc1ccc(-c2nc3ccccc3[nH]2)cc1,> 100 µM,> 100,> 100 µM,> 100,> 100 µM,> 100 µM,92 µM,> 100,37.1 µM,> 100 µM,32.4 µM,> 100,> 100,45.8 µM,> 100,55400 nM,> 100 µM,52.5 µM,> 100 µM,> 100
C=C1CCC2C3(C)COC(c4ccccc4)OC3CCC2(C)C1/C=C/C1=CCOC1=O (stereo not drawn),3.23 µM,10.7,9.58 µM,22,2.87 µM,12.3 µM,1.89 µM,5.65,8.67 µM,21.6 µM,12.3 µM,34,69.4,7.75 µM,19.4,1950 nM,5.64 µM,15.6 µM,32.6 µM,19.9
Cc1nc2ccccc2c(/C=C/c2ccc(Cl)cc2)c1C(=O)/C=C/c1ccc(C(F)(F)F)cc1,0.165 µM,0.54,0.821 µM,2.84,0.264 µM,0.865 µM,0.291 µM,> 100,1.34 µM,2.63 µM,1.69 µM,3.09,1.46,0.393 µM,1.35,192 nM,0.652 µM,0.404 µM,1.56 µM,0.299
O=C(NCCCO)c1cc(Cl)ccc1O,2.16 µM,10.8,4.4 µM,19.9,1.11 µM,12.1 µM,0.728 µM,17.3,1.94 µM,4.33 µM,4.26 µM,15.1,18,3.1 µM,14.3,1750 nM,10.5 µM,1.85 µM,8.33 µM,1.67
Cc1cc(N2CCOCC2)nc(N[C@@H]2CCC[C@H](Nc3ccnc4cc(Cl)ccc34)C2)n1,2.13 µM,5.24,3.1 µM,11.2,2.1 µM,4.4 µM,3.31 µM,9.25,1.86 µM,3.27 µM,2.15 µM,4.09,3.71,2.05 µM,4.55,1980 nM,4.26 µM,1.95 µM,3.67 µM,1.68
O=C(c1ccccc1)C1OC1c1ccc([N+](=O)[O-])cc1 (stereo not drawn),3.75 µM,14.5,19.6 µM,56.9,9.86 µM,> 100 µM,2.89 µM,> 100,3.81 µM,16.7 µM,6.1 µM,50.8,71.1,11 µM,26.1,3170 nM,12.6 µM,6.22 µM,> 100 µM,3.9
Cn1c2c(c3ccc([N+](=O)[O-])cc3c1=O)C(=O)c1ccccc1-2,> 100 µM,> 100,> 100 µM,> 100,> 100 µM,> 100 µM,> 100 µM,> 100,> 100 µM,> 100 µM,> 100 µM,> 100,> 100,> 100 µM,> 100,> 100000 nM,> 100 µM,70.3 µM,> 100 µM,> 100
CC1=C(c2ccccc2)NC(=S)C(C)C(c2ccccc2)=N1 (stereo not drawn),–,> 100,–,> 100,–,> 100 µM,–,47.1,–,82.9 µM,–,> 100,> 100,–,> 100,–,> 100 µM,–,> 100 µM,–
CN(Cc1ccccc1)c1ccc(CO)c(Cl)c1,9.63 µM,> 81.4,0.595 µM,3.08,4.55 µM,> 90.8 µM,32.5 µM,> 100,13.6 µM,37.5 µM,0.225 µM,1.01,5.45,13 µM,51.9,533 nM,15.1 µM,79 µM,> 100 µM,0.857
CCC(=C/[C@H](C)C/C=C/C(C)=C/[C@@H](C)C(=O)[C@@H](C)[C@H](O)[C@@H](C)CC)/C=C/[C@@H]1OC(=O)C=C[C@H]1C,< 0.01 µM,1.4,< 0.01 µM,1.8,< 0.01 µM,–,0.0201 µM,0.16,< 0.01 µM,< 0.01 µM,< 0.01 µM,1.52,2.13,< 0.01 µM,< 0.01,< 10 nM,< 0.01 µM,< 0.01 µM,0.0157 µM,< 0.01
